From PubChem BioAssay AID330 (DTP/NCI, 2004)
Values joined by “and” are separate entries in the source; they are usually repeats but may differ in a detail not shown here. Identical values can stand only once. Toxic doses and inconclusive results are not listed. Rule for the calls: active = survival T/C of 150% or more; inactive = T/C below 125% in these data.

Tested on: P388 leukemia ip, CD2F1 mice, survival T/C
Assay: NCI In Vivo Anticancer Drug Screen. Data for tumor model P388 Leukemia (intraperitoneal) in CD2F1 (CDF1) mice
Details: endpoint: median survival time, higher = longer survival
Outline: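 Mice carrying the transplanted tumor received test compound or vehicle. Survival was recorded in each group, and the value is the treated-group measurement divided by that of the vehicle-treated control group.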

[1] = dose: 100.0 mg/kg/injection, schedule: Q01DX009 (ip), vehicle: saline with Tween-80
[2] = dose: 200.0 mg/kg/injection, schedule: Q01DX009 (ip), vehicle: saline with Tween-80
[3] = dose: 400.0 mg/kg/injection, schedule: Q01DX009 (ip), vehicle: saline with Tween-80
[4] = dose: 50.0 mg/kg/injection, schedule: Q01DX009 (ip), vehicle: saline with Tween-80
[5] = dose: 50.0 mg/kg/injection, schedule: Q01DX009 (ip), vehicle: Klucel (hydroxypropylcellulose) (HPC)
[6] = dose: 100.0 mg/kg/injection, schedule: Q01DX009 (ip), vehicle: Klucel (hydroxypropylcellulose) (HPC)

Measured: T/C

C=Cn1ccnc1
inactive: dose: 6.25 mg/kg/injection, schedule: Q01DX009 (ip), vehicle: saline 100 % of control | dose: 12.5 mg/kg/injection, schedule: Q01DX009 (ip), vehicle: saline 103 % of control and 123 % of control | dose: 25.0 mg/kg/injection, schedule: Q01DX009 (ip), vehicle: saline 103 % of control | dose: 50.0 mg/kg/injection, schedule: Q01DX009 (ip), vehicle: saline 108 % of control and 113 % of control and 114 % of control | dose: 100.0 mg/kg/injection, schedule: Q01DX009 (ip), vehicle: saline 91 % of control

CCOC(=O)Cc1csc2nc(-c3ccccc3)cn12
inactive: dose: 60.0 mg/kg/injection, schedule: Q01DX005 (ip), vehicle: saline with Tween-80 115 % of control | dose: 120.0 mg/kg/injection, schedule: Q01DX005 (ip), vehicle: saline with Tween-80 104 % of control | dose: 240.0 mg/kg/injection, schedule: Q01DX005 (ip), vehicle: saline with Tween-80 106 % of control

CCOC(=O)/C(=C/c1ncnc2nc[nH]c12)C(F)(F)C(=O)OCC
inactive: dose: 25.0 mg/kg/injection, schedule: Q04DX003 (ip), vehicle: saline 97 % of control | dose: 50.0 mg/kg/injection, schedule: Q04DX003 (ip), vehicle: saline 100 % of control | dose: 100.0 mg/kg/injection, schedule: Q04DX003 (ip), vehicle: saline 99 % of control

CC1Oc2[nH]c(=O)n(-c3ccc(Cl)cc3)c(=S)c2C1C (stereo unspecified)
inactive: dose: 12.5 mg/kg/injection, schedule: Q01DX001 (ip), vehicle: Klucel (hydroxypropylcellulose) (HPC) 100 % of control | dose: 25.0 mg/kg/injection, schedule: Q01DX001 (ip), vehicle: Klucel (hydroxypropylcellulose) (HPC) 102 % of control | dose: 50.0 mg/kg/injection, schedule: Q01DX001 (ip), vehicle: Klucel (hydroxypropylcellulose) (HPC) 101 % of control

COc1ccc(/C=C/c2ccc3ccccc3n2)c(OC)c1
inactive: [1] 100 % of control | [2] 100 % of control | [3] 100 % of control

CC(C)(C)OC(=O)CN1C(=O)CCC1=O
inactive: dose: 50.0 mg/kg/injection, schedule: Q01DX005 (ip), vehicle: Klucel (hydroxypropylcellulose) (HPC) 99 % of control | dose: 100.0 mg/kg/injection, schedule: Q01DX005 (ip), vehicle: Klucel (hydroxypropylcellulose) (HPC) 100 % of control | dose: 200.0 mg/kg/injection, schedule: Q01DX005 (ip), vehicle: Klucel (hydroxypropylcellulose) (HPC) 106 % of control

NN=C(c1ccccn1)c1ccccn1
inactive: dose: 37.5 mg/kg/injection, schedule: Q01DX009 (ip), vehicle: saline with Tween-80 94 % of control | dose: 75.0 mg/kg/injection, schedule: Q01DX009 (ip), vehicle: saline with Tween-80 114 % of control | dose: 150.0 mg/kg/injection, schedule: Q01DX009 (ip), vehicle: saline with Tween-80 113 % of control

OCN(CO)c1nc(N(CO)CO)nc(N(CO)CO)n1
inactive: dose: 6.3 mg/kg/injection, schedule: Q01DX009 (ip), vehicle: saline with Tween-80 109 % of control | dose: 12.5 mg/kg/injection, schedule: Q01DX009 (ip), vehicle: saline with Tween-80 106 % of control | [4] 108 % of control

Cn1c(=O)[nH]c2nnc(-c3ccccc3)nc2c1=O
inactive: [5] 107 % of control | [6] 106 % of control

O=C1NN=COc2ccccc21
inactive: [4] 106 % of control and 108 % of control and 93 % of control | [1] 100 % of control and 102 % of control and 105 % of control | [2] 106 % of control and 115 % of control and 121 % of control | [3] 110 % of control and 119 % of control

NNC(=O)c1ccccc1NC(=O)CSc1nc2ccccc2s1
inactive: [5] 104 % of control | [6] 101 % of control | dose: 200.0 mg/kg/injection, schedule: Q01DX009 (ip), vehicle: Klucel (hydroxypropylcellulose) (HPC) 101 % of control

CP1(=S)CC[C@H]2C3=C(CC[C@@H]21)CC(=O)CC3 (stereo partly specified)
inactive: dose: 50.0 mg/kg/injection, schedule: Q01DX005 (ip), vehicle: saline + Tween-80 + alcohol 106 % of control | dose: 100.0 mg/kg/injection, schedule: Q01DX005 (ip), vehicle: saline + Tween-80 + alcohol 103 % of control | dose: 200.0 mg/kg/injection, schedule: Q01DX005 (ip), vehicle: saline + Tween-80 + alcohol 97 % of control

CC1C2CCC3C(O)C2(CC(O)C2(O)C1CC(O)C2(C)C)CC3(C)O (stereo unspecified)
inactive: dose: 0.25 mg/kg/injection, schedule: Q01DX009 (ip), vehicle: Klucel (hydroxypropylcellulose) (HPC) 101 % of control | dose: 0.5 mg/kg/injection, schedule: Q01DX009 (ip), vehicle: Klucel (hydroxypropylcellulose) (HPC) 93 % of control | dose: 1.0 mg/kg/injection, schedule: Q01DX009 (ip), vehicle: Klucel (hydroxypropylcellulose) (HPC) 95 % of control
